Entries after “also recorded” stand apart in the source; their conditions may differ.
Test system: light damaged rats
Experiment: Electroretinogram (ERG) in retina light damage model of dry AMD
Type: in vivo, Sprague Dawley (SD) rats
Details: for mixed a-wave amplitude vs light damaged control group: 1 week post treatment
Description: Retina Light Damage Model of Dry Age-Related Macular Degeneration—The intense light damage model was prepared and carried out as described in previous studies. Mat Nor N, Guo C X, Rupenthal ID, Chen Y S, Green C R, Acosta M L. Sustained Connexin43 Mimetic Peptide Release From Loaded Nanoparticles Reduces Retinal and Choroidal Photodamage. Invest Ophthalmol Vis Sci. 2018; 59:3682-93; Guo C X, Mat Nor M N, Danesh-Meyer H V, Vessey K A, Fletcher E L, O'Carroll S J, et al. Connexin43 Mimetic Peptide Improves Retinal Function and Reduces Inflammation in a Light-Damaged Albino Rat Model. Invest Ophthalmol Vis Sci. 2016; 57:3961-73; Guo C X, Tran H, Green C R, Danesh-Meyer H V, Acosta M L. Gap junction proteins in the light-damaged albino rat. Mol Vis. 2014; 20:670-82; Noell W K, Walker V S, Kang B S, Berman S. Retinal damage by light in rats. Invest Ophthalmol. 1966; 5:450-73. The light damage rat model was selected as it allows direct comparison with this and other drugs. Kim Y, Griffin J M, Nor M N M, Zhang J, Freestone P S, Danesh-Meyer H V, et al. Tonabersat Prevents Inflammatory Damage in the Central Nervous System by Blocking Connexin43 Hemichannels. Neurotherapeutics. 2017; 14:1148-65; Mat Nor N, Guo C X, Rupenthal ID, Chen Y S, Green C R, Acosta M L, supra; Guo C X, Mat Nor M N, Danesh-Meyer H V, Vessey K A, Fletcher E L, O'Carroll S J, et al., supra. […] All experimental procedures were approved by the University of Auckland Animal Ethics Committee, approval No. 001462 and comply with the Association for Research in Vision and Ophthalmology (ARVO) statement for the use of animals in eye research. Six to eight-week old albino Sprague Dawley (SD) rats (200-250 g; male or female) were used. Adult SD rats were exposed to continuous bright light for 24 hours, consistently starting at 9:00 am to minimize possible time-of-day variability. Light exposure was to two animals at a time to prevent rats from taking cover using each other as a shield. The LD protocol and intervention was repeated until the number of individuals for each dose group was obtained (n=7 per group). The light luminance was 2700 lux, generated using fluorescent lamps (Philips Master TLD 18W/965; Koninklijke Philips Electronics N.V., China) directly above the animal cages. The lamps were cool and emitted broadband light, from 380 to 760 nm wavelength, with the average intensity at the top of the cage being 120 W/m2. Animals were free to move within the cage with access to food and water ad libidum. Baseline electroretinography (ERG) readings and optical coherence tomography (OCT) images were collected prior to the light damage. After light exposure, animals were returned to normal light-dark cycle conditions (12 hours light, 174 lux and 12 hours darkness, <62 lux) for 24 hours, 1 week or 2 weeks (and for one group 3 months).
Tonabersat treatment of light damaged rats—LD rats were randomly assigned to low, middle or high dose of tonabersat (n=7 per group). The mixture of tonabersat in peanut butter was prepared fresh for each experiment. Three oral tonabersat doses were tested (n=7 per group) with follow up to 2 weeks post-injury, and the highest dose group then split with three animals taken for histological analysis, and four animals followed to 3 months post-injury. There was a ten-animal vehicle only control group. The group of rats that were kept for 3 months were maintained in separate cages for drug or vehicle-treated animals, but were kept under the same light conditions. Tonabersat was fed to animals in peanut butter at 0.26 mg/kg (on average 0.08 mg delivered, estimated circulating concentration 10 μM), 0.8 mg/kg (average of 0.24 mg delivered; 30 μM circulating) or 2.4 mg/kg (on average 0.72 mg delivered; 90 μM circulating) following consideration of previous unsuccessful human trial dosing levels. Silberstein S D. Tonabersat, a novel gap-junction modulator for the prevention of migraine. Cephalalgia. […]

[1] = 2.4 mg/kg oral single dose, 3 months after light damage

## CC(=O)c1ccc2c(c1)[C@H](NC(=O)c1ccc(F)c(Cl)c1)[C@H](O)C(C)(C)O2 [tonabersat, N-[(3S,4S)-6-acetyl-3-hydroxy-2,2-dimethyl-3,4-dihydrochromen-4-yl]-3-chloro-4-fluorobenzamide]
0.26 mg/kg oral
  improvement in absolute amplitude of the b-wave (on average): 1000 µV
0.26 mg/kg oral single dose, p<0.01
  mixed a-wave amplitude vs light damaged control group: significant improvements
0.26 mg/kg oral, 24 hours after treatment
  mixed b-wave function: significant improvement
0.8 mg/kg oral
  improvement in absolute amplitude of the b-wave (on average): 1000 µV
0.8 mg/kg oral single dose, p<0.01
  mixed a-wave amplitude vs light damaged control group: significant improvements
0.8 mg/kg oral, 24 hours after treatment
  mixed b-wave function: significant improvement
2.4 mg/kg oral
  improvement in absolute amplitude of the b-wave (on average): 1200 µV
2.4 mg/kg oral (high dose), 24 hours after treatment
  mixed b-wave function, significant improvement: not seen
2.4 mg/kg oral single dose, intensities 0.1-2.1 log cd·s/m2, p<0.001
  mixed a-wave amplitude vs light damaged control group: significant improvements
[1]
  a-wave improvement in photoreceptor function compared with vehicle treated controls: exceeding 400 V
  b-wave amplitude compared with vehicle treated controls: exceeded 800 V
2.4 mg/kg oral, 3 months
  PII rod response compared to before light damage: no change; also recorded: matching the controls
  PIII rod response compared to before light damage: no change; also recorded: only slightly lower
24 hours post-light exposure, any of three oral doses (0.26, 0.8, 2.4 mg/kg)
  ERG, difference to vehicle control group: no differences
All three oral doses, 1 and 2 weeks post-treatment
  inner retinal function (mixed b-wave amplitude, all stimulus intensities): overt improvement
All three oral doses, 2 weeks post-treatment, highest intensity, p<0.001
  improvement in ERG a-wave over vehicle treated light-injured group: ~500 V
All three oral doses, 2 weeks post-treatment, intensities 0.1-2.1 log cd·s/m2, p<0.001
  mixed a-wave amplitude: significant recovery
All tonabersat-treated animals, end of 2-week recovery period
  mixed a-wave and mixed b-wave functions: within the range of variance for normal, undamaged albino rats
